Measurements published in patent US9023889B2, “Use of ascorbic acid derivatives for the functionalization of matrices” (Merck Patent GmbH, priority 2006, dated 2015).

Tests used:
prolyl-4-hydroxylase = conditions: cited from earlier work
chicken skin = test: Evidence of bonding to chicken skin; conditions: 2% in dimethylisosorbide, 2.66 μl/cm^2, exposure 16 hours, isopropanol extraction, photometric at 354 nm
Method: A) DHAB is dissolved to the extent of 2% in dimethylisosorbide. The solution is applied to chicken skin at an application rate of 2.66 μl/cm^2. After an exposure time of 16 hours, the samples are extracted with isopropanol in an ultrasound bath. The extracts are measured photometrically at 354 nm and compared with a 100% value (=application solution without use). The difference in the recovery compared with the 100% value corresponds here to the proportion of active compound bonded to the skin. For DHAB, a bound proportion of 76% is found, while the non-bonding comparative substance DHHB has, as expected, a low value of only 3%.

Human hair samples = test: Evidence of bonding to hair (SEM); conditions: 0.2% solution in ethanol/water=80/20, 8 h, rinsed; comparison with DHHB
Method: Human hair samples are stirred with a 0.2% ethanolic active-compound solution of DHAB or DHHB (ethanol/water=80/20) for 8 h, subsequently rinsed with ethanol/water=80/20 and sent for SEM measurement (SEM=scanning electron microscope).

pig skin = test: Evidence of bonding to pig skin; conditions: pig skin 24 h
Method: • 2% solution of DHAB in Arlasolve DMI sample (A) and Pelemol BIP sample (B) • formulation containing 1% of DHAB sample (C) [=54-07-5-A, from Example V] • 2% solution of DHHB in Arlasolve DMI sample (D) and isopropyl myristate sample (E) formulations containing 0.84% of DHHB sample (F) [=54-07-5-B from Example V] and 0.84% of DHHB+0.37% of vitamin C sample (G) [=54-07-5-C from Example V]. • pig skin is cut to 2.5×7.5 cm and placed on Plexiglas specimen slides. Procedure:
50 µl of each of samples (A) to (G) are dripped onto the specimen slides with pig skin, spread using a plastic spatula, and the specimen slides are stored in a desiccator [87% atmospheric humidity through sat. KCl solution] at room temperature for 24 h. The specimen slides are then rinsed with 50 ml of isopropanol into volumetric flasks, treated in an ultrasound bath for 5 min, clear-filtered via syringe filters (cloudiness due to detached skin constituents and measured by UV spectrometer (400-250 nm; UVmax˜355 nm) (residue 1 to 7). The 100% comparative value used are 50 ml isopropanol solutions of in each case 50 µl of samples (A) to (G), which are likewise measured by UV spectrometer.

gelatine plates = test: Evidence of bonding (skin model), gelatine plates; conditions: 24 hrs at 87% atmospheric humidity, eluted with iPrOH in ultrasound bath
Method: 4% solutions of a mixture of two isomers of 2-(3,4-dihydroxy-5-oxo-2,5-di-hydrofuran-2-yl)-2-hydroxyethyl 2-(4-diethylamino-2-hydroxybenzoyl)benzo-ate, prepared in accordance with Example 1 or 2, abbreviated to DHAB below, in various solvent systems are prepared. 40 µl of each of these are applied to 2.5×7.5 cm gelatine plates and stored at 87% atmospheric humidity for 24 hrs. The plates are then eluted with 50 ml of iPrOH in an ultrasound bath for 5 min. The bonding to the gelatine is carried out by comparison with a corresponding standard solution: […]

In the case of `CC(=O)Oc1ccccc1C(=O)OC[C@H](OC(=O)c1ccccc1OC(C)=O)[C@H]1OC(=O)C(O)=C1O` [O^5O^6-bis(2-acetoxybenzoyl) L-ascorbate], the “supporting the activity of the enzyme prolyl-4-hydroxylase” value (prolyl-4-hydroxylase) is given as “capable of supporting the activity” and the “affinity to the enzyme” value (prolyl-4-hydroxylase; compared with the monosubstituted compound) is given as “lower affinity”.

In the case of `CCN(CC)c1ccc(C(=O)c2ccccc2C(=O)OC[C@@H](O)[C@H]2OC(=O)C(O)=C2O)c(O)c1` [DHAB, (R)-2-((R)-3,4-dihydroxy-5-oxo-2,5-dihydrofuran-2-yl)-2-hydroxyethyl 2-(4-diethylamino-2-hydroxybenzoyl)benzoate], the “bound proportion (proportion of active compound bonded to the skin)” value (chicken skin) is reported as 76%, the “active-compound adduction onto the hair cuticles (SEM picture)” value (Human hair samples) is reported as “clearly increasingly evident” and the “Bonding (non-extractable residue)” value (pig skin; 1% in W/O 54-07-5-A) is reported as 91%. For the same compound, the “Bonding (non-extractable residue)” value (pig skin; 2% in Arlasolve DMI) was 97%, the “Bonding (non-extractable residue)” value (pig skin; 2% in Pelemol BIP) was 89% and the “Non-extractable content and therefore bonded to the skin” value (gelatine plates; 4% solution in EG/water 94/6 on gelatine plate) was 97.0%. For the same compound, the “Non-extractable content and therefore bonded to the skin” value (gelatine plates; 4% solution in i-PrOH on gelatine plate) was 12.5%.

With `CCCCCCOC(=O)c1ccccc1C(=O)c1ccc(N(CC)CC)cc1O` [DHHB, hexyl 2-(4-diethylamino-2-hydroxybenzoyl)benzoate] the “bound proportion (proportion of active compound bonded to the skin)” value (chicken skin) was 3%, the “Bonding (non-extractable residue)” value (pig skin; 0.84% in W/O 54-07-5-B) was 5% and the “Bonding (non-extractable residue)” value (pig skin; 2% in Arlasolve DMI) was 0%. For the same compound, the “Bonding (non-extractable residue)” value (pig skin; 2% in isopropyl myristate) was 2%.

In the case of `CC(=O)Oc1ccccc1C(=O)OC[C@H](O)[C@H]1OC(=O)C(O)=C1O` [O^6-(2-acetoxybenzoyl) L-ascorbate], the “supporting the activity of the enzyme prolyl-4-hydroxylase” value (prolyl-4-hydroxylase) is given as “capable of supporting the activity”.
